Measured values as given in patent publication US10610506B2 (UCL Business PLC, priority 2004, dated 2020).
“Also recorded” adds a separate entry of the source.

Key:
[1] = system: neutrophils; details: blood incubated 1 hour with increasing concentrations of ammonia; 10 ng/ml IL-8 (FIG. 3)
Protocol: Neutrophil Chemotaxis: Neutrophil chemotaxis was measured using a modified Boyden chamber method using interleukin-8 as chemo-attractant to stimulate chemokinesis.
(§1) Blood was collected from healthy volunteers (n=15) and incubated for 1 hour with increasing concentrations of ammonia. The ability of the neutrophils to phagocytose bacteria was measured using the Phagotest and Neutrophil chemotaxis assays. 10 ng/ml IL-8 was used in the Neutrophil chemotaxis assay.

[2] = system: neutrophils; experiment: Phagotest neutrophil phagocytosis, blood incubated with ammonia and amino acids; type: cell-based, human
Protocol: Methods for Measurement of Neutrophil Phagocytosis and oxidative burst Phagotest: Heparinised whole blood was incubated with opsonised FITC-labelled E coil and CD16. The cells were then analysed by flow cytometry (FACScan Becton Dickinson), gated through forward and side scatter and subsequently assessed on the basis of R-phycoerythrin (PE) [Immunotech, Marseille, France] flurochrome expression to identify CD16 positive cells. The gated population was then assessed for the presence of FITC-labelled bacteria.
as §1
Blood was collected from healthy volunteers (n=15) and incubated for 1 hour with ammonia and selected amino acids. The ability of the neutrophils to phagocytose bacteria was measured using the Phagotest assay.

[3] = system: patients with cirrhosis; experiment: LOLA infusion in cirrhosis with HE: ammonia and glutamine; type: in vivo, human
From the text: (§2) Blood was sampled for the measurement of ammonia and glutamine.

[4] = system: patients with advanced cirrhosis; experiment: Aspartate accumulation during L-ornithine L-aspartate treatment; type: in vivo, human
[5] = system: patients with HE grade 3 undergoing heamofiltration; experiment: LOLA infusion in patients undergoing heamofiltration (CVVH); type: in vivo, human
From the text: as §2

[6] = system: patients with biopsy-proven cirrhosis of the liver; experiment: Simulated bleed with isoleucine supplementation: protein kinetics (Phe model) and ammonia; type: in vivo, human; details: for Net Balance / Protein breakdown / Protein synthesis: mean ± SEM
Protocol: Sixteen metabolically stable patients with biopsy-proven cirrhosis of the liver were studied. Patients were randomized either to supplementation with isoleucine (40 mg/L solution; 50 ml/hr) or placebo during a simulated bleed over a 4-hour period. Protein synthesis (measured using primed continuous infusion of L-[ring-^2H5]phenylalanine), L-[ring-^2H4]tyrosine and L[ring-^2H2]tyrosine) and ammonia.

[7] = system: patients with cirrhosis admitted for management of variceal bleeding; experiment: Open labelled study of isoleucine and OIP after variceal bleeding; type: in vivo, human
Protocol: • 1. Groups—2 patients per group. Total 6 • 2. Inclusion criteria • Adult patients aged 18-80 years, liver cirrhosis documented by histology or clinical criteria, Child B or C, recent Gastrointestinal bleed from varices (<6 hours after presentation), informed consent/assent. • 3. Exclusion criteria • other concomitant neurological disorder, use of another specific ammonia lowering drug, respiratory failure requiring mechanical ventilation and sedation, uncontrolled gastrointestinal bleeding, hypotension requiring inotropes, overt renal failure (creatinine >2 nag/dl), hemodialysis, extracorporeal liver support, known hypersensitivity to any of the study drugs, pregnancy/lactation. Methods
In an open labelled study, we included 6 patients with cirrhosis and who were admitted for management of variceal bleeding. They were matched for the severity of liver disease (see Table 4). They were treated with one of the following regimes for a 3 day period and observations were made for 5 days. The study groups were:
i. Placebo: 5% Dextrose over 4 hours (250 ml)
ii. Isoleucine alone: 10 gm IV in 250 ml 5% Dextrose over 2 hours in two divided doses.
Patients were fasted overnight between 0000 midnight and 0800 am. They were fed intragastrically with a diet of 25 KCal/Kg that included 1 g/Kg protein diet starting at 0800 and finishing at midnight. Blood was sampled at 0730 am and then at 1800 hr for the measurement of ammonia and glutamine. Patients were monitored closely for side effects. The drug was tolerated well in each of the groups and no adverse events were observed. Because the patients received sedation for their initial endoscopy, the mental state assessment was impossible to interpret. One patient each in the Placebo and the Isoelucine groups died from multiorgan failure in the hospital. The rest of the patients survived.

[8] = system: patients with biopsy proven cirrhosis of the liver; experiment: Simulated gastrointestinal bleed in cirrhotic patients, neutrophil chemotaxis with isoleucine infusion; type: in vivo, human; details: after simulated bleed (75 g amino acid mixture), isoleucine iv over 2 hours
From the text: Ten overnight fasted, metabolically stable patients with biopsy proven cirrhosis of the liver [9 males and 1 female; mean 49.6 years (SEM 9.1); mean Child-Pugh score of 7.8 (SEM 1.2)] were studied prior to and two hours after an oral administration of 75 grams of an amino acid mixture that mimics the hemoglobin molecule (Nutricia, Cuijk, Netherlands). In seven other patients [4 male and 3 female; mean 51.4 years (SEM 6.7); mean Child-Pugh score of 8.1 (SEM 1.4)], following administration of the amino acid mixture, isoleucine was administered intravenously over a 2 hour period (iso-osmotic solution containing 40 mg/l of isoleucine at a rate of 100 ml/hr). Neutrophil chemotaxis (see Example 1 for method) and plasma ammonia were measured in peripheral venous blood samples.

[9] = system: patients with cirrhosis and hyperammonemia; experiment: Open labelled study of ornithine, phenylbutyrate and OP in hepatic encephalopathy; type: in vivo, human; details: for mean ammonia levels: over the period of treatment (FIG. 11); for mean glutamine levels: over the period of treatment (FIG. 12)
From the text: • 1. Groups-3 patients per group. Total 12. • 2. Inclusion criteria • adult patients aged 18-80 years, —liver cirrhosis documented by histology or clinical criteria • HE type C, ammonia concentration of >80 umol/L, informed consent/assent • 3. Exclusion criteria • other concomitant neurological disorder, —use of another specific ammonia lowering drug, —respiratory failure requiring mechanical ventilation and sedation, —uncontrolled gastrointestinal bleeding, —hypotension requiring inotropes, overt renal failure (creatinine >2 mg/dl), hemodialysis, —extracorporeal liver support, known hypersensitivity to any of the study drugs, —pregnancy. Assessment of Mental State
In an open labelled study, we included 8 patients with cirrhosis and hyperammonemia. They were matched for the severity of liver disease (see Table 3). They were treated with one of the following regimes for a 3 day period and observations were made for 5 days. The study groups were:
(i) Placebo: 5% Dextrose over 4 hours;
(iii) Phenylbutyrate: 10 g twice daily, orally (0800 and 1600); and
Patients were fasted overnight between 0000 midnight and 0800 am. They were fed intragastrically with a diet of 25 KCal/Kg that included 1 g/Kg protein diet starting at 0800 and finishing at midnight. Blood was sampled at 0730 am and then at 1800 hr for the measurement of ammonia and glutamine. Patients were monitored closely for side effects.

[10] = system: devascularized pig model of acute liver failure; experiment: Devascularized pig model of acute liver failure; type: in vivo, pigs; details: for muscle ammonia uptake/production (femoral vein-artery): FIG. 23
Protocol: Pigs had catheters inserted into the femoral artery and vein, portal vein, renal vein and pulmonary artery. The experiment started at time=−1 hr, when placebo or treatment infusions were started.
1. Placebo: 5% Dextrose over 3 hours, oral water placebo
At the end of the experiment a section of frontal cortex was removed for brain water measurements.

[11] = system: BDL cirrhotic rats; experiment: Bile duct ligated rat model, IP ornithine, phenylbutyrate, OP; type: in vivo, Sprague-Dawley rats
Protocol: Male Sprague-Dawley rats (200-250 g) were used for this procedure. Following anaesthetisation, a mid-line laparotamy was performed, the bile duct was exposed, triply ligated with 4.0 silk suture, and severed between the second and third ligature. The wound was closed in layers with absorbable suture, and the animal allowed to recover in a quiet room before being returned to the animal storage facility. Animals were kept at a constant temperature (20° C.) in a 12 hour light/dark cycle with access to water and standard rodent chow ad libitum. […] At six weeks, under anaesthesia a right carotid arterial catheter was inserted and used to collect repeated blood samples. Following this procedure a baseline sample was collected prior to administration of the study formulations by IP injection. […] Blood samples were collected into pre-cooled […] tubes and stored on ice prior to processing. Plasma was collected following centrifugation (3,000 rpm, 10 mins) and stored at -80° C. prior to analyses. Ammonia, glucose, lactate and urea were measured using a COBRAS Mira S according to manufacturers instructions. Amino acids were quantified by HPLC with fluorescence detection.

[12] = LOLA 40 g over 8 hours (FIG. 8)

Compound: N [ammonia]
- neutrophil chemotaxis [1]: significant reduction
- neutrophil phagocytosis ([2]; blood of healthy volunteers incubated 1 hour with increasing concentrations of ammonia (FIG. 2)): significant reduction

Compound: L-ornithine L-aspartate [LOLA]
- severity of HE ([3]; LOLA 40 g over 8 hours): beneficial effects
- ammonia concentration [3, 12]: significant reduction
- glutamine concentration [3, 12]: concomitant rise
- recurrence of HE ([3]; after LOLA was stopped): 3 of the 6
- circulating ammonia levels when LOLA was stopped ([3]; after stopping infusion): rebound increase
- ASPARTATE concentration ([4]; Day 1, 40 g/day): 178 µmol/L
- ASPARTATE concentration ([4]; Day 2, 40 g/day): 289 µmol/L
- ASPARTATE concentration ([4]; Day 3, 40 g/day): 354 µmol/L
- ASPARTATE concentration ([4]; PRE, 40 g/day L-ornithine L-aspartate): 72 µmol/L
- increase in the aspartate concentration ([4]; over a 3 day period): 5 times the basal value
- ammonia concentration ([5]; LOLA 40 g over 8 hours with CVVH (FIG. 9)): reduction
- glutamine concentration ([5]; LOLA with addition of dialysis (FIG. 9)): prevented the concomitant increase

Compound: CC[C@H](C)[C@H](N)C(=O)O [isoleucine]
- Net Balance ([6]; Leg, End): 261 ± 102 nmol/kg body cell mass/min
- Protein breakdown ([6]; Leg, End): 159 ± 100 nmol/kg body cell mass/min
- Protein synthesis ([6]; Leg, End): 377 ± 135 nmol/kg body cell mass/min
- Net Balance ([6]; Leg, t = 0 hours): −185 ± 152 nmol/kg body cell mass/min
- Protein breakdown ([6]; Leg, t = 0 hours): 196 ± 61 nmol/kg body cell mass/min
- Protein synthesis ([6]; Leg, t = 0 hours): −31 ± 201 nmol/kg body cell mass/min
- Protein synthesis ([6]; Liver, End (final hour of amino acid infusion)): 839 ± 221 nmol/kg body cell mass/min
- Net Balance ([6]; Liver, End): 682 ± 165 nmol/kg body cell mass/min
- Protein breakdown ([6]; Liver, End): 157 ± 204 nmol/kg body cell mass/min
- Net Balance ([6]; Liver, t = 0 hours): 98 ± 33 nmol/kg body cell mass/min
- Protein breakdown ([6]; Liver, t = 0 hours): 109 ± 25 nmol/kg body cell mass/min
- Protein synthesis ([6]; Liver, t = 0 hours): 218 ± 37 nmol/kg body cell mass/min
- protein synthesis of liver and muscle ([6]; isoleucine infusion during simulated bleed): restores impaired protein synthesis
- ammonia concentration, isoleucine versus placebo ([6]; simulated bleed over 4 hours (FIG. 7)): not significantly different
- patients died from multiorgan failure in the hospital ([7]; 2 patients per group): One
- ammonia concentrations ([7]; FIG. 14): no significant changes
- glutamine levels ([7]; FIG. 15): not significantly altered
- Dead/Alive ([7]; individual patients P3-P6, listed as Isoleucine alone): P3: A; also recorded: P4: D
- neutrophil chemotaxis [8]: 25.4 (±6.0) cells/high power field

Compound: NCCC[C@H](N)C(=O)O [ornithine]
- mean ammonia levels [9]: increased from baseline values
- mean glutamine levels [9]: increase
- Ornithine levels ([7]; over the course of OIP treatment, reduced to basal values on stopping the drug (FIG. 18)): marked sustained increase
- arterial ornithine levels ([10]; FIG. 27): increase

Compound: phenylbutyrate
- Dead/Alive ([9]; individual patients P3-P8, listed as Phenylbutyrate alone): P5: A; also recorded: P6: A
- mean ammonia levels [9]: increased from baseline values
- mean glutamine levels [9]: reduction
- arterial ammonia ([10]; 0.3 g/Kg each over 3 hours, to experiment termination (FIG. 22), listed as Phenylbutyrate alone): initial blunting of arterial ammonia levels, which quickly rises to levels comparable with ornithine alone at experiment termination; also recorded: insignificant effects
- muscle ammonia uptake/production (femoral vein-artery) ([10]; listed as P alone): increase in ammonia production by the muscle
- muscle ammonia uptake/production (femoral vein-artery) ([10]; listed as Phenylbutyrate alone): little change
- gut ammonia production (portal drained viscera-artery) ([10]; FIG. 24): appreciable
- muscle glutamine release ([10]; FIG. 25, listed as Phenylbutyrate alone): net removal
- gut glutamine uptake ([10]; FIG. 26): little overt effect
- arterial glutamine levels ([10]; FIG. 28): marginally increases
- plasma ammonia ([11]; after 1 hour, p<0.01 vs all other groups): significant increase
- plasma ammonia ([11]; three hour time point / end of the study): difference was found to be smaller

Compound: NC(=O)CC[C@H](N)C(=O)O [glutamine]
- ammonia-induced reduction in neutrophil phagocytosis ([2]; blood incubated 1 hour with ammonia and selected amino acid (FIG. 4)): partially reversed
